What was measured:
OPRM1 = biological target: T1, OPRM1 (Homo sapiens, UniProt P35372); assay: Eurofins SAFETYscan 78-target panel, off-target effects, OPRM1; type: biochemical; conditions: antagonist / blocker / inhibitor mode
T1 construct: Eurofins
Protocol: (§1) FIG. 9. Table summarizing the Eurofins analysis of potential off-target effects of M1i-124. […] values above 10 μM are generally considered to be acceptable. FIG. 10. Representative hematoxylin and eosin (H&E) staining of organ sections (lung, heart, kidney, liver and adrenal) from control and M1i-124 treated mice described in FIG. 6.
(§2) Studies were performed using the services of Touchstone Biosciences and Eurofins Pharma Discovery Services. […] All blood samples (30-50 ul per sample) were taken via tail vein at 5, 15, and 30 minutes, and 1, 2, 4, 6, 8, and 24 hours after dosing. Blood samples are collected in Greiner MiniCollect K2 EDTA tubes, placed on ice, and within 30 minutes, centrifuged at 15,000 g for 5 minutes to obtain plasma samples. All plasma samples are stored at −70° C. until analysis. Plasma samples were prepared for analysis by LC-MS/MS, and key PK parameters, including terminal half-life (t 112), initial plasma concentration (C0), area under the plasma concentration vs. time curve (AUC), volume of distribution at steady-state (Vss), total plasma clearance (CLp), and mean residence time (MRT), were measured.
(§3) Assay details are available through Eurofins.

ADRB1 = biological target: T2, ADRB1 (Homo sapiens, UniProt P08588); assay: Eurofins SAFETYscan 78-target panel, off-target effects, ADRB1; type: biochemical; conditions: antagonist / blocker / inhibitor mode
T2 construct: Eurofins
T2 sequence (P08588 whole entry): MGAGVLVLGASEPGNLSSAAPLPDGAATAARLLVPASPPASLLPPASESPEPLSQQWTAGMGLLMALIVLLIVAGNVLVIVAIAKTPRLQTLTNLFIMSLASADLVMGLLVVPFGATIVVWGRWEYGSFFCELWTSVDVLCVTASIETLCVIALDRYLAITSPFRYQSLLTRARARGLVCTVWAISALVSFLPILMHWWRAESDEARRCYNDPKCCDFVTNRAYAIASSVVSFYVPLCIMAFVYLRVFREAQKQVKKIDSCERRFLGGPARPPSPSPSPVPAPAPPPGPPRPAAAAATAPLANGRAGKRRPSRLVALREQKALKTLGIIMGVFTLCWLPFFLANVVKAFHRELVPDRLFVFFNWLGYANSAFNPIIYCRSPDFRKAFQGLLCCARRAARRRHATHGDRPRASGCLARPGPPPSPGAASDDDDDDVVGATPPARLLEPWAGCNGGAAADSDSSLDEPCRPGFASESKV
Protocol: as §1, §2, §3

[1] = system: PMA/iono-induced transcription of interleukin 2 (IL-2); assay: IL-2 transcription in Jurkat T cells (quantitative RT-PCR); type: cell-based; conditions: compound at 1 μM
Protocol: The DLBCL cell lines, OCI-Ly1, OCI-Ly3, and OCI-Ly7, were provided by Dr. Mark Minden (University Health Network, Toronto, Ontario, Canada). TMD8 cells were provided by Dr. Louis Staudt (NCI, NIH). OCI-Ly1 and OCI-Ly7 cells were cultured in Iscove's Modified Dulbecco's Medium (IMDM) supplemented with 10% FBS. OCI-Ly3 cells were cultured in IMDM supplemented with 20% FBS. TMD8 and Jurkat T cells were cultured in RPMI1640 medium with 10% FBS. HEK293T cells were cultured in DMEM medium with 10% FBS. All media were supplemented with 100 U/ml penicillin streptomycin. Stimulation of Jurkat cells was conducted by adding 5 ng/ml of phorbol 12-myristatel3 acetate (PMA)(Sigma-Aldrich) and 1μM ionomycin (Calbiochem), or by adding 5-10 μL/mL of ImmunoCult Human CD3/CD28 ([…] Technologies).
Total RNA extraction was performed using RNeasy Plus Mini Kit (Qiagen Cat #74136). 1 ng RNA was transcribed into cDNA using High-Capacity cDNA Reverse Transcription Kit (Applied Biosystems Cat #4368814) according to manufacturer's instructions. RT-PCR reactions were performed using TaqMan gene expression probe sets.

[2] = system: IL-6 and IL-10 secretion in TMD8 cells; assay: IL-6 and IL-10 secretion by TMD8 cells (ELISA); type: cell-based, human
Protocol: Expression of cytokines from cell culture supernatants was measured 24h after treatment with 0, 0.01, 0.03, 0.1, 0.3, 1, or 3 uM of compounds using the following ELISA kits according to the manufacturer's instructions: Human IL-2 ELISA (BioLegend Cat #431804), Human IL-6 ELISA (BioLegend Cat #430504), and Human IL-10 ELISA (BioLegend Cat #430604).

[3] = system: MALT1 proteolytic cleavage of RelB and N4BP1; assay: RelB and N4BP1 cleavage assay in Jurkat T cells; type: cell-based; conditions: 20 hours pretreatment, MG132, PMA/iono stimulation

T1 sequence (P35372 whole entry): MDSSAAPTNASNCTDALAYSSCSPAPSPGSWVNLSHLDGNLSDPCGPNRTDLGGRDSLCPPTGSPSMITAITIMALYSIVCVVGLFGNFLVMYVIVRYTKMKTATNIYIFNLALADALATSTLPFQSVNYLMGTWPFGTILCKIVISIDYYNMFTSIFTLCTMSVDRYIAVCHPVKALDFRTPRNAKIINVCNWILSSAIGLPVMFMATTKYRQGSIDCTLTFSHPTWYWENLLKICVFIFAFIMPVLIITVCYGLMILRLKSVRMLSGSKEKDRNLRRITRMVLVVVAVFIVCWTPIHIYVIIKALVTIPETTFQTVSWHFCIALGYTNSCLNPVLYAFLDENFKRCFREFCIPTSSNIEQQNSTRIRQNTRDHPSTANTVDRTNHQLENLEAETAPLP

O=S(=O)(NCc1ccc2c(c1)OCO2)c1ccc(Cc2ccc(S(=O)(=O)NCc3ccc4c(c3)OCO4)cc2)cc1 [M1i-124]
IC50 (OPRM1): 3700 nM
IC50 (ADRB1): 800 nM

COc1ccc(CNS(=O)(=O)c2ccc(Cc3ccc(S(=O)(=O)NCc4ccc(OC)cc4)cc3)cc2)cc1 [M1i-124d1]
Transcription of interleukin 2 (IL-2) [1]: inhibit
IL-6 secretion [2]: inhibit IL-6 and IL-10 secretion in a concentration-dependent manner
IL-10 secretion [2]: inhibit IL-6 and IL-10 secretion in a concentration-dependent manner
MALT1 proteolytic cleavage of N4BP1 (ratio cleaved/full-length) [3]: inhibit
MALT1 proteolytic cleavage of RelB (ratio cleaved/full-length) [3]: inhibit
